In PubChem BioAssay AID324 (DTP/NCI, 2004) one finds T/C data, which are given here for 12 compounds.

This test deals with CD2F1 mice, AMSA-resistant P388 leukemia ip, median survival T/C. As to the kind of experiment: NCI In Vivo Anticancer Drug Screen. Data for tumor model P388 Leukemia resistant to AMSA; NSC 249992 (intraperitoneal) in CD2F1 (CDF1) mice. As to conditions: endpoint: median survival time, higher = longer survival. The protocol:
The antitumor activity of compounds was measured in mice bearing transplantable tumors. Survival or tumor size were measured and the results are expressed as the measurement made in the treated group (T) divided by the measurement made in the vehicle treated control group (C). The tumor model used in this assay is P388 Leukemia resistant to AMSA; NSC 249992 (intraperitoneal) in CD2F1 (CDF1) mice

The mark [1] stands for this setting: dose: 0.08 mg/kg/injection, schedule: Q04DX003 (ip), vehicle: saline + alcohol.
Setting [2] is: dose: 0.13 mg/kg/injection, schedule: Q04DX003 (ip), vehicle: saline + alcohol.

Where “and” joins values, the source holds several entries; their conditions need not be identical. Identical values can stand only once. Inconclusive results and toxic doses are left out. Starred links: 1 amine or outer side, 2 acyl side, 3 side chain; linkers in the order of their positions; H or OH if unused. Positions of bridges follow the written chain, without caps; N, C: chain ends. Non-standard residues stand in square brackets, D forms with d. Residues, ends and D or L forms follow the SMILES beside them. Chains are numbered I, II in the order given. Actinocin(9to1) = Cc1c2oc3c(C)ccc(C(=O)[*:1])c3nc-2c(C(=O)[*:2])c(N)c1=O; aThr = C[C@H](O)[C@H](N)C(=O)O; NMeV = CN[C@H](C(=O)O)C(C)C; Sar = CNCC(=O)O

With `COc1cc2c[n+](C)c3c4cc5c(cc4ccc3c2cc1OC)OCO5`, the T/C reads like this: (dose: 25.92 mg/kg/injection, schedule: Q04DX003 (ip), vehicle: distilled water + Tween-80) 118 % of control; (dose: 43.2 mg/kg/injection, schedule: Q04DX003 (ip), vehicle: distilled water + Tween-80) 123 % of control; (dose: 120.0 mg/kg/injection, schedule: Q04DX003 (ip), vehicle: distilled water + Tween-80) 115 % of control.
Regarding `CC1OC(OC2CC(O)(C(=O)CO)Cc3c(O)c4c(c(O)c32)C(=O)c2ccccc2C4=O)CC(N)C1O` (configuration not stated), the T/C (dose: 0.13 mg/kg/injection, schedule: Q04DX003 (ip), vehicle: water) is 114 % of control; the T/C (dose: 0.21 mg/kg/injection, schedule: Q04DX003 (ip), vehicle: water) is 115 % of control; the T/C (dose: 0.6 mg/kg/injection, schedule: Q04DX003 (ip), vehicle: water) is 117 % of control; the T/C (dose: 1.0 mg/kg/injection, schedule: Q04DX003 (ip), vehicle: water) is 123 % of control.
As to `CO[C@H]1Nc2c(ccc(C)c2O)C(=O)N2C=C(/C=C/C(N)=O)C[C@@H]12`, the T/C reads like this: under setting [1], 104 % of control; under setting [2], 123 % of control.
As for `CC[C@]1(O)C[C@H]2CN(CCc3c([nH]c4ccccc34)[C@@](C(=O)OC)(c3cc4c(cc3OC)N(C=O)[C@H]3[C@@](O)(C(=O)OC)[C@H](OC(C)=O)[C@]5(CC)C=CCN6CC[C@]43[C@@H]65)C2)C1`, the T/C by setting is: (dose: 0.72 mg/kg/injection, schedule: Q04DX003 (ip), vehicle: saline) 176 % of control; (dose: 1.0 mg/kg/injection, schedule: Q04DX003 (ip), vehicle: saline) 102 % of control; (dose: 1.2 mg/kg/injection, schedule: Q04DX003 (ip), vehicle: saline) 201 % of control; (dose: 2.0 mg/kg/injection, schedule: Q04DX003 (ip), vehicle: saline) 193 % of control.
Regarding `COc1cccc2c1C(=O)c1c(O)c3c(c(O)c1C2=O)C[C@@](O)(C(=O)CO)C[C@@H]3OC1CC(N)C(O)C(C)O1` (some centres not stated), the T/C was 118 % of control and 124 % of control (dose: 0.97 mg/kg/injection, schedule: Q04DX003 (ip), vehicle: saline); 109 % of control and 86 % of control (dose: 1.3 mg/kg/injection, schedule: Q04DX002 (ip), vehicle: saline); 121 % of control (dose: 1.62 mg/kg/injection, schedule: Q04DX003 (ip), vehicle: saline); 104 % of control (dose: 2.16 mg/kg/injection, schedule: Q04DX002 (ip), vehicle: saline); 122 % of control (dose: 2.7 mg/kg/injection, schedule: Q04DX003 (ip), vehicle: saline); 152 % of control (dose: 4.5 mg/kg/injection, schedule: Q04DX003 (ip), vehicle: saline). Moreover, for the setting “dose: 6.0 mg/kg/injection, schedule: Q04DX002 (ip), vehicle: saline”, the T/C is 90 % of control.
Consider `COc1cc2cc3c4cc(OC)c(OC)cc4cc[n+]3c(C)c2cc1OC` (tested in a mixture with another compound), for which the T/C runs as follows: (dose: 25.9 mg/kg/injection, schedule: Q04DX003 (ip), vehicle: water) 110 % of control; (dose: 43.2 mg/kg/injection, schedule: Q04DX003 (ip), vehicle: water) 116 % of control.
For the compound `CCCCC(=O)OCC(=O)[C@]1(O)Cc2c(O)c3c(c(O)c2[C@@H](OC2CC(NC(=O)C(F)(F)F)C(O)C(C)O2)C1)C(=O)c1c(OC)cccc1C3=O` (some centres not stated), the T/C runs as follows: (dose: 19.4 mg/kg/injection, schedule: Q04DX003 (ip), vehicle: clinical formulation) 106 % of control; (dose: 32.4 mg/kg/injection, schedule: Q04DX003 (ip), vehicle: clinical formulation) 117 % of control; (dose: 54.0 mg/kg/injection, schedule: Q04DX003 (ip), vehicle: clinical formulation) 120 % of control; (dose: 90.0 mg/kg/injection, schedule: Q04DX003 (ip), vehicle: clinical formulation) 113 % of control.
As to `CCN(CC)CCNc1ccc(CO)c2sc3ccccc3c(=O)c12`, the T/C is, setting by setting: (dose: 10.36 mg/kg/injection, schedule: Q01DX005 (ip), vehicle: water) 106 % of control; (dose: 17.28 mg/kg/injection, schedule: Q01DX005 (ip), vehicle: water) 117 % of control; (dose: 28.8 mg/kg/injection, schedule: Q01DX005 (ip), vehicle: water) 98 % of control; (dose: 48.0 mg/kg/injection, schedule: Q01DX005 (ip), vehicle: water) 97 % of control; (dose: 80.0 mg/kg/injection, schedule: Q01DX005 (ip), vehicle: water) 87 % of control.
Regarding `COC(=O)C[C@](O)(CCCC(C)(C)O)C(=O)O[C@@H]1C(OC)=C[C@]23CCCN2CCc2cc4c(cc2[C@H]13)OCO4`, the T/C runs as follows: (dose: 1.8 mg/kg/injection, schedule: Q04DX003 (ip), vehicle: saline + alcohol) 153 % of control; (dose: 3.0 mg/kg/injection, schedule: Q04DX003 (ip), vehicle: saline + alcohol) 163 % of control.
As to `Cc1c2oc3c(C)ccc(C(=O)N[C@@H]4C(=O)N[C@H](C(C)C)C(=O)N5CCC[C@H]5C(=O)N(C)CC(=O)N(C)[C@@H](C(C)C)C(=O)O[C@H]4C)c3nc-2c(C(=O)N[C@@H]2C(=O)N[C@H](C(C)C)C(=O)N3CCC[C@H]3C(=O)N(C)CC(=O)N(C)[C@@H](C(C)C)C(=O)O[C@H]2C)c(N)c1=O` (I: [aThr][dV]P[Sar][NMeV] / II: [aThr][dV]P[Sar][NMeV]; ester I:1-I:C, II:1-II:C; linker I:N-II:N via Actinocin(9to1)), the T/C by setting is: under setting [1], 171 % of control; under setting [2], 223 % of control; (dose: 0.18 mg/kg/injection, schedule: Q04DX003 (ip), vehicle: saline + alcohol) 155 % of control; (dose: 0.3 mg/kg/injection, schedule: Q04DX003 (ip), vehicle: saline + alcohol) 176 % of control; (dose: 0.5 mg/kg/injection, schedule: Q04DX003 (ip), vehicle: saline + alcohol) 219 % of control.
Regarding `COc1cc([C@@H]2c3cc4c(cc3[C@@H](OC3OC5CO[C@@H](c6cccs6)OC5C(O)C3O)[C@H]3COC(=O)[C@H]23)OCO4)cc(OC)c1O` (some centres not stated), for the setting “dose: 25.0 mg/kg/injection, schedule: Q04DX003 (ip), vehicle: clinical formulation”, the T/C is 90 % of control.
Consider `COc1c(O)c2c(c3cc(C(=O)N4CCc5c4c(O)c(OC)c4[nH]c(C(=O)N6CC7CC78C6=CC(=O)c6[nH]cc(C)c68)cc54)[nH]c13)CCN2C(N)=O` (configuration not stated), for which the T/C (dose: 0.04 mg/kg/injection, schedule: Q01DX001 (ip), vehicle: DMSO) was 118 % of control; the T/C (dose: 0.06 mg/kg/injection, schedule: Q01DX001 (ip), vehicle: DMSO) is 123 % of control; the T/C (dose: 0.18 mg/kg/injection, schedule: Q01DX001 (ip), vehicle: DMSO) was 109 % of control.
